# Data: PubChem BioAssay (NCI)
#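 48-hour exposure; five concentrations; linearly interpolated endpoints. GI50 marks 50% less growth. At the TGI there is no net growth.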
# How the values were obtained:
# Experiment in all cases: NCI anticancer screen, dose series, 48 h
# [1] = system: SK-MEL-2 melanoma
# [2] = system: SK-MEL-28 melanoma
# [3] = system: EKVX NSCLC
# [4] = system: MDA-MB-231 breast
# [5] = system: SNB-19 CNS
# [6] = system: DU-145 prostate
# [7] = system: OVCAR-4 ovarian
# [8] = system: TK-10 renal
# [9] = system: SNB-75 CNS
# [10] = system: UACC-257 melanoma
# [11] = system: ACHN renal
# [12] = system: HS 578T breast
# [13] = system: NCI-H226 lung
# [14] = system: UACC-62 melanoma
# [15] = system: HL-60(TB) leukemia
# [16] = system: HCT-15 colon
# [17] = system: HOP-92 NSCLC
# [18] = system: HCT-116 colon
# [19] = system: MCF7 breast
# [20] = system: SR leukemia
# [21] = system: SK-MEL-5 melanoma
# [22] = system: SF-295 CNS
# [23] = system: OVCAR-8 ovarian
# [24] = system: MOLT-4 leukemia
# [25] = system: CCRF-CEM leukemia
# [26] = system: KM12 colon
# [27] = system: OVCAR-3 ovarian
# [28] = system: OVCAR-5 ovarian
# [29] = system: MDA-MB-435
# [30] = system: NCI-H522 lung
# [31] = system: NCI-H460 lung
# [32] = system: SF-268 CNS
# [33] = system: A498 renal
# [34] = system: BT-549 breast
# [35] = system: COLO 205 colon
# [36] = system: T-47D breast
# [37] = system: CAKI-1 renal
# [38] = system: NCI-H23 lung
# [39] = system: U251 CNS
# [40] = system: 786-0 renal
# [41] = system: K-562 leukemia
# [42] = system: MALME-3M melanoma
# [43] = system: NCI/ADR-RES ovarian
# [44] = system: A549 NSCLC
# [45] = system: HOP-62 NSCLC
# [46] = system: HT29 colon
# [47] = system: LOX IMVI melanoma
# [48] = system: SN12C renal
# [49] = system: HCC-2998 colon
# [50] = system: UO-31 renal
# [51] = system: M14 melanoma
# [52] = system: RPMI-8226 leukemia
# [53] = system: IGROV1 ovarian
# [54] = system: SW-620 colon
# [55] = system: SF-539 CNS
# [56] = system: SK-OV-3 ovarian
# [57] = system: PC-3 prostate
smiles,measurement,setting,value
COc1ccc([C@H]2[C@H](O)C(=O)N2c2cc(OC)c(OC)c(OC)c2)cc1,GI50,[1],30.9 nM
same,TGI,[1],> 100 µM
same,GI50,[2],1700 nM
same,TGI,[2],> 100 µM
same,TGI,[3],> 100 µM
same,GI50,[4],< 16.2 nM
same,TGI,[4],> 100 µM
same,GI50,[5],< 26.7 nM
same,TGI,[5],> 100 µM
same,GI50,[6],< 10.9 nM
same,GI50,[7],1750 nM
same,TGI,[7],> 100 µM
same,GI50,[8],> 100 µM
same,TGI,[8],> 100 µM
same,GI50,[9],< 10 nM
same,TGI,[9],> 100 µM
same,GI50,[10],1870 nM
same,TGI,[10],> 100 µM
same,GI50,[11],< 10 nM
same,TGI,[11],> 100 µM
same,GI50,[12],< 11.1 nM
same,TGI,[12],> 100 µM
same,GI50,[13],< 10 nM
same,TGI,[13],> 100 µM
same,GI50,[14],< 10 nM
same,TGI,[14],> 100 µM
same,GI50,[15],< 10 nM
same,TGI,[15],< 17.2 nM
same,GI50,[16],< 10.3 nM
same,TGI,[16],> 100 µM
same,TGI,[17],> 100 µM
same,GI50,[18],< 10 nM
same,TGI,[18],> 100 µM
same,GI50,[19],< 10 nM
same,TGI,[19],> 100 µM
same,GI50,[20],< 10 nM
same,GI50,[21],< 10 nM
same,TGI,[21],38.7 nM
same,GI50,[22],< 10 nM
same,TGI,[22],> 100 µM
same,GI50,[23],< 10 nM
same,TGI,[23],< 10 nM
same,GI50,[24],< 16.8 nM
same,TGI,[24],> 100 µM
same,GI50,[25],< 10 nM
same,TGI,[25],> 100 µM
same,GI50,[26],< 10 nM
same,TGI,[26],> 100 µM
same,GI50,[27],< 10 nM
same,TGI,[27],120 nM
same,GI50,[28],< 17.9 nM
same,TGI,[28],> 100 µM
same,GI50,[29],< 10 nM
same,TGI,[29],< 10 nM
same,GI50,[30],< 10 nM
same,TGI,[30],< 10 nM
same,GI50,[31],< 13.3 nM
same,TGI,[31],> 34.3 µM
same,GI50,[32],< 20.7 nM
same,TGI,[32],> 100 µM
same,GI50,[33],> 100 µM
same,TGI,[33],> 100 µM
same,GI50,[34],< 13.7 nM
same,TGI,[34],288 nM
same,GI50,[35],< 13.2 nM
same,TGI,[35],< 20.9 nM
same,GI50,[36],> 100 µM
same,TGI,[36],> 100 µM
same,GI50,[37],< 10 nM
same,TGI,[37],> 100 µM
same,GI50,[38],11 nM
same,TGI,[38],> 100 µM
same,GI50,[39],< 10 nM
same,TGI,[39],> 100 µM
same,GI50,[40],< 17.8 nM
same,TGI,[40],> 100 µM
same,GI50,[41],< 10 nM
same,TGI,[41],> 100 µM
same,TGI,[42],> 100 µM
same,GI50,[43],< 13.9 nM
same,TGI,[43],3.84 µM
same,GI50,[44],< 13.2 nM
same,TGI,[44],> 100 µM
same,GI50,[45],< 19.9 nM
same,TGI,[45],> 100 µM
same,GI50,[46],< 10 nM
same,GI50,[47],< 10 nM
same,TGI,[47],> 100 µM
same,GI50,[48],< 15 nM
same,TGI,[48],> 100 µM
same,GI50,[49],< 15.8 nM
same,TGI,[49],> 100 µM
same,GI50,[50],< 14 nM
same,TGI,[50],> 100 µM
same,GI50,[51],< 12.7 nM
same,TGI,[51],> 100 µM
same,GI50,[52],< 10 nM
same,TGI,[52],> 100 µM
same,GI50,[53],< 10.8 nM
same,TGI,[53],> 100 µM
same,GI50,[54],< 10.9 nM
same,TGI,[54],> 100 µM
same,GI50,[55],< 10 nM
same,TGI,[55],< 10 nM
same,GI50,[56],< 12.1 nM
same,TGI,[56],> 100 µM
same,GI50,[57],< 10 nM
same,TGI,[57],> 100 µM
